We go through 26 compounds from ChEMBL document CHEMBL3351934, “Monocyclic 4-amino-6-(phenylamino)-1,3,5-triazines as inhibitors of human DNA topoisomerase IIα” (Bioorg Med Chem Lett, 2014).

The target of data set [1] is DNA topoisomerase 2-alpha (Homo sapiens, UniProt P11388). Nature of the data set: Inhibition of human DNA topoisomerase 2alpha using plasmid pNO1 substrate incubated at 37 degC for 30 mins by fluorimetry.
Data set [2] deals with HepG2. Nature of the data set: Cytotoxic activity against human HepG2 cells assessed as reduction in cell viability after 24 hrs by MTT assay. The conditions noted are these: HepG2, 24 h.
In data set [3] the test system is MCF7. Nature of the data set: Cytotoxic activity against human MCF7 cells assessed as reduction in cell viability at 6.25 to 25 after 24 hrs by MTT assay. It is filed as functional, cell-based.
Data set [4] deals with MCF7. In words: Cytotoxic activity against human MCF7 cells assessed as reduction in cell viability at 200 uM after 24 hrs by MTT assay. Format: functional, cell-based.
Data set [5] can be described thus: Cytotoxic activity against HUVEC assessed as reduction in cell viability at 200 uM after 24 hrs by MTT assay. It is filed as cell-based. Particulars: human, HUVEC cells; read-out: INH.
Data set [6] concerns HepG2. In words: Cytotoxic activity against human HepG2 cells assessed as reduction in cell viability at 200 uM after 24 hrs by MTT assay. It is filed as functional. Particulars: HepG2, 24 h.
Data set [7] deals with MCF7. Nature of the data set: Cytotoxic activity against human MCF7 cells assessed as reduction in cell viability after 24 hrs by MTT assay. Particulars: MCF7, 24 h.
Data set [8] relates to HepG2. In words: Cytotoxic activity against human HepG2 cells assessed as reduction in cell viability at 6.25 to 25 after 24 hrs by MTT assay. Format: functional, cell-based.
For another data set, the system named is HUVEC. Nature of the data set: Cytotoxic activity against HUVEC assessed as reduction in cell viability after 24 hrs by MTT assay. It is filed as cell-based, Homo sapiens.
For data set [9], the system named is HepG2. Nature of the data set: Cytotoxic activity against human HepG2 cells assessed as reduction in cell viability at 50 to 100 uM after 24 hrs by MTT assay. It is filed as functional, cell-based.

Active and inactive are the calls of the source. The rule behind the calls is not given here.

Sequence of DNA topoisomerase 2-alpha (P11388 whole entry): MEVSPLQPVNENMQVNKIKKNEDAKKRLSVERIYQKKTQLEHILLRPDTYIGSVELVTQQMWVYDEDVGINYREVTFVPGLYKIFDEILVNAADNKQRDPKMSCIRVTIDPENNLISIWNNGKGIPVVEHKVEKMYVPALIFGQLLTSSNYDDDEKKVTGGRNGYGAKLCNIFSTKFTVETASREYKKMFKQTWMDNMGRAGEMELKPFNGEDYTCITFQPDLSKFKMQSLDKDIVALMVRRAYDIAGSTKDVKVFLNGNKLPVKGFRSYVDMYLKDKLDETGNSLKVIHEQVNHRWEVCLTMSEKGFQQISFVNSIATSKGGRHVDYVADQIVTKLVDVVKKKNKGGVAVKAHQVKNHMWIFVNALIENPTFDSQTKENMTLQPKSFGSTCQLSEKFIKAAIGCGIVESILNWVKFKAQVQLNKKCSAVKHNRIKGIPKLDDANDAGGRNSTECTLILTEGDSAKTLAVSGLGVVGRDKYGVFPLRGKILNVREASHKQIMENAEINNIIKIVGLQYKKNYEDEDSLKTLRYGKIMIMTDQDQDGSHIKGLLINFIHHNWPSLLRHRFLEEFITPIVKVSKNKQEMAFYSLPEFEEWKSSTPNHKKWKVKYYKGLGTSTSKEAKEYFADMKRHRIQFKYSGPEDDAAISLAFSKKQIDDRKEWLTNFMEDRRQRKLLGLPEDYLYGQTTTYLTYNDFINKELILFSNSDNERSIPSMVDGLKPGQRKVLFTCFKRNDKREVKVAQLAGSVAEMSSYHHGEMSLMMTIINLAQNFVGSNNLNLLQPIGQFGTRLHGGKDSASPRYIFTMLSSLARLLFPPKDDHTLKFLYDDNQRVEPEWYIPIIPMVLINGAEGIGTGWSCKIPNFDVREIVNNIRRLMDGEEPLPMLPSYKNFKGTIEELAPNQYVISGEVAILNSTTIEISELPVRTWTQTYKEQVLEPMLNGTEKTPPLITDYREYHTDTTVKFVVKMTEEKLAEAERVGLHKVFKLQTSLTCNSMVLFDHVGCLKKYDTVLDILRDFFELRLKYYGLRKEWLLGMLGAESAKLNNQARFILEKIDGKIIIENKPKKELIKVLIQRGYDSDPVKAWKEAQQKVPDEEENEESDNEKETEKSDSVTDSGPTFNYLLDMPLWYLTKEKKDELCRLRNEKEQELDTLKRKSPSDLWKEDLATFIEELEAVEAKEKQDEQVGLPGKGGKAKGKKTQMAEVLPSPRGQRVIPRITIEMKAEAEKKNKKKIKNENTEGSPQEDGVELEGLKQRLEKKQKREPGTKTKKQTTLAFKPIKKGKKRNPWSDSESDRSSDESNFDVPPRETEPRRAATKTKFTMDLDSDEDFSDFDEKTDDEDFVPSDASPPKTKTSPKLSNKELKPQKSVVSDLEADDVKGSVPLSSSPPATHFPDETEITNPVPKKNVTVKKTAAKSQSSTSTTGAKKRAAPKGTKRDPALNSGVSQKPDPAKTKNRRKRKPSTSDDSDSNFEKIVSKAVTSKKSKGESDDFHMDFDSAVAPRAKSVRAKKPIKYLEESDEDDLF

Consider `Cc1cc(O)nc(N/N=C\c2ccncc2)n1`, for which, in data set [1], the IC50 is over 1 mM.

In the case of `Nc1nc(CSc2nnnn2C2CCCC2)nc(Nc2ccc(F)cc2)n1`, the IC50 in [1] was over 1 mM.

As to `COc1ccc(Nc2nc(N)nc(CSC(=S)N3CCCCC3)n2)cc1`, in data set [1], the IC50 is over 1 mM.

With `O=C(NCc1n[nH]c(=S)n1-c1ccc(F)cc1)c1ccccc1F`, the IC50 in [1] is over 1 mM.

In the case of `CCCn1ccnc1SCc1nc(N)nc(Nc2ccc(F)cc2)n1`, the IC50 in data set [1] is over 1 mM.

`COc1cccc(C(=O)NCc2n[nH]c(=S)n2-c2ccccc2Cl)c1` showed a concentration for half-maximal inhibition (IC50) in [1] of over 1 mM.

Take `CN(C(=S)SCc1nc(N)nc(Nc2ccc(F)cc2)n1)C1CCCCC1`: the IC50 in [1] was over 1 mM.

In data set [1], `Nc1nc(CSc2nnc(C3CC3)o2)nc(Nc2ccc(F)cc2)n1` returned an IC50 of over 1 mM.

In data set [1], `Cc1cc(O)nc(N/N=C\c2cccnc2)n1` displayed an IC50 of over 1 mM.

In data set [1], `CN1CCN(C(=S)SCc2nc(N)nc(Nc3ccc(F)cc3)n2)CC1` displayed a 50% inhibitory concentration (IC50) of over 1 mM.

Turning to `C[C@H](Sc1nc(N)cc(O)n1)C(=O)N1CCOCC1`, the half-inhibitory concentration (IC50) in [1] is over 1 mM.

In the case of `Nc1nc(CSC(=S)N2CCOCC2)nc(Nc2ccc(F)cc2)n1`, half-maximal inhibition in data set [1] (IC50) was put at 0.139 mM.

Regarding `Nc1nc(CSC2CCCC2)nc(Nc2ccc(F)cc2)n1`, the IC50 in data set [1] is over 1 mM.

`Nc1nc(SCCc2ccccc2)c2nc[nH]c2n1`: in [1], the concentration for half-maximal inhibition (IC50) was 0.085 mM. This counts as double-digit micromolar.

In turn, `COc1cccc(C(=O)NCc2nnc(S)n2-c2ccc(Cl)c(Cl)c2)c1` displayed an IC50 in [1] of over 1 mM.

In the case of `COc1ccc(CNc2ncccc2C(N)=O)cc1OC`, the IC50 in data set [1] is over 1 mM.

Turning to `Cc1cc(CNc2nc(C)ccc2C(N)=O)ccn1`, in [1], the IC50 is over 1 mM.

In turn, `Cn1nnnc1SCc1nc(N)nc(Nc2ccc(F)cc2)n1` had a half-inhibitory concentration (IC50) in data set [1] of over 1 mM.

On to `Nc1nc(N)nc(CSc2nnc(-c3cccnc3)o2)n1`, for which the IC50 in [1] was over 1 mM.

For the compound `Nc1nc(CSc2nnn[nH]2)nc(Nc2ccc(F)cc2)n1`, the IC50 in [1] came to 0.337 mM.

For `C[C@H](Sc1nc(N)nc(N)n1)C(=O)N1CCOCC1`, the IC50 in data set [1] is over 1 mM.

Compound `O=C(NCc1n[nH]c(=S)n1-c1ccccc1)c1ccccc1C(F)(F)F` gave an IC50 in data set [1] of over 1 mM.

As for `COc1ccc(Nc2nc(N)nc(CSC(=S)N3CCOCC3)n2)cc1`, the EC50 with HepG2 [2] is 0.0205 mM; in the data set with MCF7 [7], 0.129 mM; in the data set with HUVEC (Homo sapiens, HUVEC), 0.122 mM. Besides, the inhibition entry in the data set with MCF7 [3] and in the data set on HepG2 [8] was “inactive” each time. The inhibition entry in the data set with MCF7 [4] and in the data set with HepG2 [9] was “Active” each time. Further, in data set [5], the cytotoxicity at 24 h, 200 µM was determined as 90%. Further, the inhibition at 200 µM in the data set with HepG2 [6] was 90%. Further, the “inhibition (INH)” value with HUVEC (human, huvec) is given as “Dose-dependent effect”. For the same compound, half-maximal inhibition in data set [1] (IC50) was put at 0.229 mM.

Turning to `Cc1cc(CNc2nc3c(cc2C(N)=O)CCC3)ccn1`, the IC50 in data set [1] was over 1 mM.

As to `Cc1cc(CNc2ncccc2C(N)=O)ccn1`, the IC50 in [1] was over 1 mM.

As for `Cc1cc(O)nc(NCCCn2ccnc2)n1`, in [1], the IC50 is over 1 mM.
